The nature of series [1]: Lipophilicity, log P of the compound. To be noted: octanol/water.
Series [2] can be described thus: Distribution coefficient, log D of the compound. To be noted: octanol/water.
A further series concerns K562. Nature of the series: Antiproliferative activity against Homo sapiens (human) K562 cells after 48 hr by MTT assay. The note with it: K562, 48 h. It is filed as functional, cell-based. For orientation: Tetrazolium assays rely on reduction of a dye to a coloured formazan, in cell work by metabolically active cells.

Molecules are shown by their SMILES.

By logP is commonly meant the decadic logarithm of the partition coefficient of the neutral form, usually between octanol and water. Higher therefore signals higher lipophilicity. A word on the logD: it is lipophilicity at a set pH, counting ionised and neutral species. The low end stands for lower lipophilicity, the high end for higher lipophilicity. As usually defined, the IC50 is the concentration at which inhibition is half-maximal.

With `Cc1ccc(OP2(=O)NCC(C)(C)CN2)cc1`, the logP in series [1] was 1.55. Also, in series [2], the pH-dependent lipophilicity (logD) was 0.73.
Take `CC1(C)CNP(=O)(Nc2ccc(S(N)(=O)=O)cc2)NC1`: the lipophilicity (logP) in series [1] was -0.78. The logD in series [2] is -1. In addition, inhibition with K562 was half-maximal at 58.2 µM (IC50).
On the same counts, the results for `CC1(C)CNP(=O)(NC(=O)c2ccccc2[N+](=O)[O-])NC1` are 0.34, -0.04 and 6.87 µM.
For `CC1(C)CNP(=O)(NC(=O)c2cccc([N+](=O)[O-])c2)NC1`, in that order: 0.34, -0.03 and 5.08 µM.
In turn, `CC1(C)CNP(=O)(NC(=O)c2ccc([N+](=O)[O-])cc2)NC1` displayed a logP in series [1] of 0.34. Also, the logD in series [2] is -0.03. In the series with K562, this compound returned a half-inhibitory concentration (IC50) of 6.49 µM.
In series [1], `O=P1(N(CCCl)CCCl)NCCCO1` (stereo unspecified) [CYCLOPHOSPHAMIDE ANHYDROUS] displayed a logP of 1.12. For the same compound, the logD in series [2] stood at 0.05.

The record behind these values is ChEMBL document CHEMBL3046386, “Cyclophosphamide analogues: synthesis, spectroscopic study, and antitumor activity of diazaphosphorinanes” (Med Chem Res, 2011).
